Experiments:
CCRF-CEM = assay: Cytotoxicity against human CEM cells assessed as viable cells after 72 hrs by calcein AM assay; format: functional, cell-based
MCF7 = assay: Cytotoxicity against human MCF7 cells assessed as viable cells after 72 hrs by calcein AM assay; format: functional, cell-based; conditions: MCF7, 72 h
G-361 = assay: Cytotoxicity against human G361 cells assessed as viable cells after 72 hrs by calcein AM assay; format: functional, cell-based; conditions: G-361, 72 h
HeLa = assay: Cytotoxicity against human HeLa cells assessed as viable cells after 72 hrs by calcein AM assay; format: functional, cell-based
HOS = assay: Cytotoxicity against human HOS cells assessed as viable cells after 72 hrs by calcein AM assay; format: functional, cell-based
A549 = assay: Cytotoxicity against human A549 cells assessed as viable cells after 72 hrs by calcein AM assay; format: functional, cell-based; conditions: A549, 72 h
[1] = Cytotoxicity against human T98 cells assessed as viable cells after 72 hrs by calcein AM assay; format: functional, cell-based; conditions: T98, 72 h
HCT-116 = assay: Cytotoxicity against human HCT116 assessed as viable cells after 72 hrs by calcein AM assay; format: functional, cell-based; conditions: HCT-116, 72 h
BJ = assay: Cytotoxicity against human BJ cells assessed as viable cells after 72 hrs by calcein AM assay; format: cell-based

Row | Compound | IC50 (CCRF-CEM) [nM] | IC50 (MCF7) [nM] | IC50 (G-361) [nM] | IC50 (HeLa) [nM] | IC50 (HOS) [nM] | IC50 (A549) [nM] | IC50 [1] [nM] | IC50 (HCT-116) [nM] | IC50 (BJ) [nM]
1 | CCCCCCCCCCCCCC(=O)OC[C@@H](C)[C@@]1(O)[C@@H](O[C@@H]2OC[C@H](O)[C@H](O[C@@H]3OC[C@@H](O)[C@H](O)[C@H]3OC(=O)c3ccc(OC)cc3)[C@H]2OC(C)=O)C[C@H]2[C@@H]3CC=C4C[C@@H](O)CC[C@]4(C)[C@H]3CC[C@@]21C | 16 | 48 | 30 | 67 | 2700 | 720 | 28 | 2800 | 83
2 | CCCCCCCCCCCCCCCCCC(=O)OC[C@@H](C)[C@@]1(O)[C@@H](O[C@@H]2OC[C@H](O)[C@H](O[C@@H]3OC[C@@H](O)[C@H](O)[C@H]3OC(=O)c3ccc(OC)cc3)[C@H]2OC(C)=O)C[C@H]2[C@@H]3CC=C4C[C@@H](O)CC[C@]4(C)[C@H]3CC[C@@]21C | 58 | 195 | 300 | 435 | > 50000 | 550 | 210 | > 50000 | 80
3 | CCCCCCCCCCCC(=O)OC[C@@H](C)[C@@]1(O)[C@@H](O[C@@H]2OC[C@H](O)[C@H](O[C@@H]3OC[C@@H](O)[C@H](O)[C@H]3OC(=O)c3ccc(OC)cc3)[C@H]2OC(C)=O)C[C@H]2[C@@H]3CC=C4C[C@@H](O)CC[C@]4(C)[C@H]3CC[C@@]21C | 6.3 | 21 | 8 | 42 | 1900 | 930 | 7 | 2800 | 5
4 | C=CCCCCC(=O)OC[C@@H](C)[C@@]1(O)[C@@H](O[C@@H]2OC[C@H](O)[C@H](O[C@@H]3OC[C@@H](O)[C@H](O)[C@H]3OC(=O)c3ccc(OC)cc3)[C@H]2OC(C)=O)C[C@H]2[C@@H]3CC=C4C[C@@H](O)CC[C@]4(C)[C@H]3CC[C@@]21C | 21 | 54 | 44 | 61 | 6500 | 840 | 43 | 11000 | 20
5 | COc1ccc(C(=O)O[C@H]2[C@H](O[C@@H]3[C@@H](OC(C)=O)[C@H](O[C@H]4C[C@H]5[C@@H]6CC=C7C[C@@H](O)CC[C@]7(C)[C@H]6CC[C@]5(C)[C@@]4(O)[C@H](C)COC(=O)c4ccccc4)OC[C@@H]3O)OC[C@@H](O)[C@@H]2O)cc1 | 70 | 700 | 1660 | – | – | 170 | – | – | 100
6 | CCCCC(=O)OC[C@@H](C)[C@@]1(O)[C@@H](O[C@@H]2OC[C@H](O)[C@H](O[C@@H]3OC[C@@H](O)[C@H](O)[C@H]3OC(=O)c3ccc(OC)cc3)[C@H]2OC(C)=O)C[C@H]2[C@@H]3CC=C4C[C@@H](O)CC[C@]4(C)[C@H]3CC[C@@]21C | 60 | 500 | 390 | 170 | – | 160 | – | – | 500

Reference: ChEMBL document CHEMBL1773000, “Synthesis and biological activity of 22-deoxo-23-oxa analogues of saponin OSW-1” (J Med Chem, 2011)
